Columns and labels:
Type in all cases: in vivo
[1] = test system: Aphis gossypii, cotton aphid (CA); experiment: Cotton aphid (CA) cotyledon dip test; design: key: 0 = no effect; 1 = 10-25% kill; 2 = 26-35% kill; 3 = 36-45% kill; 4 = 46-55% kill; 5 = 56-65% kill; 6 = 66-75% kill; 7 = 76-85% kill; 8 = 86-99% kill; 9 = 100% kill; settings: mortality after 5 days
Method in brief: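 Mortality was scored 5 days after dipping aphid-infested cotyledons, colonised overnight from a transfer leaf, into water dilutions of a 35% acetone/water compound solution.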

[2] = test system: Diabrotica undecimpunctata howardi, eggs-southern corn rootworm (SCR-Eggs); experiment: Southern corn rootworm eggs (SCR-Eggs) treated diet test; design: key: 0 = no effect; 1 = 10-25% kill; 2 = 26-35% kill; 3 = 36-45% kill; 4 = 46-55% kill; 5 = 56-65% kill; 6 = 66-75% kill; 7 = 76-85% kill; 8 = 86-99% kill; 9 = 100% kill; settings: mortality after 7 days
Method in brief: (§1)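 Eggs of S. eridania or D. undecimpunctata howardi were set on artificial diet pretreated with test solution (10,000 ppm stock in 35% aqueous acetone, water dilutions) and dried. Wells were sealed with vented clear covers, and mortality was scored at day 7.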

[3] = test system: M. incognita (Root Knot Nematode) larvae; experiment: Evaluation of test compounds against M. incognita larvae in microtiter plate wells (movement score); settings: larvae scored for movement after 20-24 hours; note: key: A score of '9' indicates inactive worms with a straight, sticklike morphology; A score of '8' indicates inactive worms with a limp, curled or curved morphology; A score of '7' indicates dead/paralyzed worms after 72 hours
Method in brief: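 Scoring is by larval movement: dead or paralyzed worms count as positive, and a "7" means dead/paralyzed at 72 hours. Freshly hatched root-knot larvae (50-65 per well) in buffered S Medium were incubated with compounds under plate sealers for 20-24 h before the first read.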

[4] = test system: Diabrotica virgifera virgifera Leconte, 2nd instar western corn rootworm (WCR); experiment: Western corn rootworm (WCR) soil test; design: key: 0 = no effect; 1 = 10-25% kill; 2 = 26-35% kill; 3 = 36-45% kill; 4 = 46-55% kill; 5 = 56-65% kill; 6 = 66-75% kill; 7 = 76-85% kill; 8 = 86-99% kill; 9 = 100% kill
Method in brief: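 Ten 2nd-instar rootworm larvae are placed in jars of moist soil with millet seed and talc treated with 1.25 mg active ingredient (roughly 50 kg/ha) from a 35% acetone-in-water solution. After 5 days mortality is scored, counting missing larvae as dead.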

[5] = test system: Tetranychus urticae (OP-resistant strain), 2-spotted spider mite (TSM); experiment: 2-spotted spider mite (TSM) plant dip test; design: key: 0 = no effect; 1 = 10-25% kill; 2 = 26-35% kill; 3 = 36-45% kill; 4 = 46-55% kill; 5 = 56-65% kill; 6 = 66-75% kill; 7 = 76-85% kill; 8 = 86-99% kill; 9 = 100% kill; settings: mortality after 2 days
Method in brief: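 Mortality counted 2 days after a 3 s agitated dip of infested Sieva lima bean plants. Compound came from a 10,000 ppm stock in 35% aqueous acetone, with further dilution in water. Each primary leaf carried about 100 OP-resistant mites, allowed to settle ~2 h before dipping.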

[6] = test system: Spodoptera eridania, eggs-southern armyworm (SAW-Eggs); experiment: Southern armyworm eggs (SAW-Eggs) treated diet test; design: key: 0 = no effect; 1 = 10-25% kill; 2 = 26-35% kill; 3 = 36-45% kill; 4 = 46-55% kill; 5 = 56-65% kill; 6 = 66-75% kill; 7 = 76-85% kill; 8 = 86-99% kill; 9 = 100% kill; settings: mortality after 7 days
Method in brief: as §1

[7] = test system: C. elegans (Bristol strain); experiment: Evaluation of test compounds against C. elegans (motility, 96-well plate); design: key: 9=complete kill in 4 hours; 8=complete kill in 24 hours; 7=markedly reduced motility in approximately 95% of worms in 24 hours; 0=normal motility, same as controls; settings: motility at 4 and 24 hours
Method in brief: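 Activity is a semi-quantitative visual score of adult and larval movement, read at 4 h and 24 h post-immersion at 20 °C after gentle tapping. Worms were suspended in Na buffer in wells where compound, dissolved in 80% acetone, had been evaporated.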

[8] = test system: Spodoptera eridania, 2nd instar larvae, southern armyworm (SAW); experiment: Southern armyworm (SAW) leaf dip test; design: key: 0 = no effect; 1 = 10-25% kill; 2 = 26-35% kill; 3 = 36-45% kill; 4 = 46-55% kill; 5 = 56-65% kill; 6 = 66-75% kill; 7 = 76-85% kill; 8 = 86-99% kill; 9 = 100% kill
Method in brief: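 Ten 2nd instar caterpillars feed on a Sieva lima bean leaf that was dipped 3 seconds in test solution (stock 10,000 ppm in 35% acetone/water, water-diluted). Five days later, larvae are assessed for death, feeding reduction or abnormal molting.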

Structure (SMILES)	CA (300 ppm) rating [1]	SCR Eggs (1000 ppm) rating [2]	M. incognita (150 ppm) score [3]	WCR (50 ppm) rating [4]	TSM (300 ppm) rating [5]	SAW Eggs (300 ppm) rating [6]	Rating Against C. elegans (150 ppm) [7]	SAW (300 ppm) rating [8]
COC(=O)CSC(C[N+](=O)[O-])c1cccc(C#N)c1 (racemic) [Example 98]	0	0	0	0	3 (3 = 36-45% kill)	0	8	5 (5 = 56-65% kill)
CCCOC(=O)CSC(C[N+](=O)[O-])c1ccccc1 (racemic) [Example 105]	0	0	0	3 (3 = 36-45% kill)	0	0	9	3 (3 = 36-45% kill)
COc1cccc(C(C[N+](=O)[O-])SCc2ccccc2)c1 (stereo not drawn) [Example 60]	0	0	0	0	0	0	0	0
CCCSC(C[N+](=O)[O-])c1c(Cl)cccc1Cl (stereo not drawn) [Example 136]	0	0	0	0	0	0	0	0
CCCCOC(=O)CSC(C[N+](=O)[O-])c1cccc(C#N)c1 (racemic) [Example 101]	0	0	9	0	0	0	0	0
CCCOC(=O)CSC(C[N+](=O)[O-])c1ccc2ccccc2c1 (racemic) [Example 112]	0	0	0	0	0	8 (8 = 86-99% kill)	9	0
CCCCC(CC)COC(=O)CSC(C[N+](=O)[O-])c1ccc2c(c1)OCO2 (stereo not drawn) [Example 22]	0	0	0	0	0	0	0	0
COC(=O)CSC(C[N+](=O)[O-])c1ccc2c(c1)OCO2 (stereo not drawn) [Example 18]	9 (9 = 100% kill)	0	9	0	0	0	9	0
COC(=O)CSC(C[N+](=O)[O-])c1ccc(OC(F)(F)F)cc1 (racemic) [Example 117]	0	0	0	0	0	0	8	0
CCCSC(C[N+](=O)[O-])c1ccc(OC)cc1 (stereo not drawn) [Example 53]	0	0	9	0	0	0	9	4 (4 = 46-55% kill)
C=CCSC(C[N+](=O)[O-])c1ccccc1 (stereo not drawn) [Example 2]		0	9			0	0	
